Results: PMC6216040, “Repurposing of an old drug: In vitro and in vivo efficacies of buparvaquone against Echinococcus multilocularis” (International Journal for Parasitology: Drugs and Drug …, 2018)
Read-outs that look alike come from different tables or passages of the source.

Tested on: E. multilocularis metacestodes
Experiment: PGI-assay: drug-induced damage on in vitro cultured metacestodes (Pathogen Box screening cascade and EC50)
Assay type: cell-based, Echinococcus multilocularis
Settings: for cytotoxicity at 10 µM: Echinococcus multilocularis
[1] = 10 µM, singlets, 5 days of incubation
[2] = 10 µM, singlets, 12 days of incubation
[3] = 120 h, 10 µM, singlets, 5 days of incubation, read-out: PGI release, % of the Tx-100 control, 5d
[4] = 288 h, 10 µM, singlets, 12 days of incubation, read-out: PGI release, % of the Tx-100 control, 12d

Structure (SMILES)	PGI release, % of the Tx-100 control, 5d [1]	PGI release, % of the Tx-100 control, 12d [2]	also measured
O=C(N[C@H](Cc1ccccc1)C(=O)Nc1ccccc1N1CCOCC1)c1cccs1 [MMV688845]	0.55%	0.28%	
Cc1ccccc1CN1CCC(O)(c2ccc(Cl)c(C(F)(F)F)c2)CC1 [MMV688846]	6.92%	5.57%	
CC(C)(C)n1nc(Cc2ccc(F)c(Cl)c2)c2c(N)ncnc21 [MMV688852]	6.41%	7.25%	
CCOc1ccc2cc(-c3nn(C(C)(C)C)c(N)c3C(N)=O)cnc2c1 [MMV688853]	-1.41%	-6.45%	
CCOc1ccc2cc(-c3nn(CC4CCN(C)CC4)c4ncnc(N)c34)ccc2c1 [MMV688854]	-0.71%	0.93%	
CN1CCN(c2cc(-c3ccc(F)cc3)nc(-c3ccncc3)n2)CC1 [MMV688888]	-2.22%	0.59%	
Clc1ccc(CCNc2cc(-c3ccccc3)nc3ncnn23)cc1 [MMV688889]	-3.56%	-0.70%	
COc1cc(Br)cc2cc(C(=O)Nc3cccc(C(F)(F)F)c3)c(=O)oc12 [MMV688891]	-4.56%	-1.74%	
OC[C@H]1O[C@@H](n2c3ccc(Cl)cc3c3c(-c4cc5ccccc5o4)ncnc32)C(O)[C@H]1O (stereo partly drawn) [MMV688921]	-1.03%	0.48%	
CCc1nn(C)c(C(=O)NCc2ccc(Oc3ccc(C)cc3)cc2)c1Cl [MMV688934, Tolfenpyrad]			cytotoxicity at 10 µM (120 h, read-out: PGI release, % of the Tx-100 control, 5d): -1.16%; cytotoxicity at 10 µM (288 h, read-out: PGI release, % of the Tx-100 control, 12d): 10.3%
O=C(c1ccco1)N(CCCn1ccnc1)c1nc2c(Cl)cccc2s1 [MMV688936]	-2.60%	13.45%	
CCOc1ccc(-c2nc(CNCCc3ccc(F)cc3)cs2)cc1 [MMV688938]	2.65%	3.55%	
Cc1ccc2nc(C)c(-c3ccn(Cc4ccccc4)n3)n2c1 [MMV688939]	15.20%	102.25%	PGI release, % of Tx-100 control, average, 5d (confirmatory screening at 10 µM in triplicates, 5 days of incubation, values as % of Tx-100 control): 3.21%; PGI release, % of Tx-100 control, average, 12d (confirmatory screening at 10 µM in triplicates, 12 days of incubation, values as % of Tx-100 control): 3.18%
COc1cc(CN2CCC3(C=Cc4ccccc43)CC2)cc2c1OCO2 [MMV688941]	-0.50%	-0.49%	
CC(C)(C)C(O)C(Oc1ccc(-c2ccccc2)cc1)n1cncn1 (stereo not drawn) [MMV688942, Bitertanol]			cytotoxicity at 10 µM [3]: -0.93%; cytotoxicity at 10 µM [4]: 0.41%
CC1COC(Cn2cncn2)(c2ccc(Oc3ccc(Cl)cc3)cc2Cl)O1 (stereo not drawn) [MMV688943, Difenoconazol]	-4.96%	-0.86%	
Cc1cc(NC(=O)c2ccc(Oc3ccc(Cl)cc3O)o2)no1 [MMV688955]	-0.20%	-3.41%	
CCc1cc(=O)n(C)c(SC(C)C(=O)Nc2ccc(F)cc2)n1 (stereo not drawn) [MMV688980]	-0.26%	0.88%	
[H]/N=C(/N)N[C@H]1[C@H](O)[C@@H](O)[C@H](O[C@@H]2O[C@@H](C)[C@](O)(C=O)[C@H]2O[C@@H]2O[C@@H](CO)[C@H](O)[C@@H](O)[C@@H]2NC)[C@@H](N/C(N)=N\[H])[C@@H]1O [MMV688994, Streptomycin, reference compound]			cytotoxicity at 10 µM [3]: -0.55%; cytotoxicity at 10 µM [4]: 0.19%
Cc1ccc(S(=O)(=O)Nc2ccc(CN3CCN(C(=O)c4cccc(C#N)c4)CC3)cc2)cc1 [MMV689028]	0.59%	-0.96%	
COc1ccc(S(=O)(=O)Nc2ccc(CN3CCN(C(=O)c4cccc(C#N)c4)CC3)cc2)cc1 [MMV689029]	2.51%	-2.23%	
Clc1ccc(CN2CCN(C3=NCCN3)CC2)cc1Cl [MMV689060]	0.33%	-1.23%	
CC(=O)Nc1ccc(-c2noc(CC3CCCN(Cc4cccc(F)c4C)C3)n2)cc1 (stereo not drawn) [MMV689061]	2.22%	1.98%	
FC(F)(F)c1ccc(N(c2cccnc2)C2CCN(c3ccc(C(F)(F)F)cn3)CC2)cc1 [MMV689243]	0.34%	10.04%	
O=C([C@@H](c1ccc(Cl)cc1)c1cccnc1)N1CCN(c2ccc(C(F)(F)F)cc2)CC1 [MMV689244]	-0.13%	-0.53%	
Nc1ncnc2c1ncn2C[C@@H](O)[C@@H](O)C(=O)O [MMV689255, Eritadenine]			cytotoxicity at 10 µM [3]: 0.0047%; cytotoxicity at 10 µM [4]: 0.51%
